Experimental data taken from patent US7105307B2, “Compositions and methods for screening for modulators of enzymatic activity” (Cyclacel, Ltd., priority 1997, dated 2006).
Where no end group is shown, it is not given here. rhodamine = not defined here

Tests used:
[1] = tested on: Ca2+/Calmodulin-dependent Protein Kinase (CaMKII); test: Timecourse of phosphorylation by CaMKII (32P-ATP); type: biochemical; conditions: 10% crude CaMKII, 0.5 mM Ca2+, 0.2 mM ATP
Protocol: (§1) A second set of timecourses of phosphorylation was performed on Zip4S using PKA and Ca^2+/Calmodulin-dependent Protein Kinase (CaMKII), together with positive and negative controls for CaMKII (used to confirm that the crude preparation of CaMKII had the expected characteristics of that enzyme). PKA phosphorylation was performed in 50 mM histidine/HCl (pH 7.0), 5 mM MgSO4, 5 mM NaF, 0.05 mM EGTA, 120 mM KCl with 0.2 mM ATP (39.72 cpm/pmol ^32P-ATP) and 0.25 μM PKA. CaMKII phosphorylation was performed in 50 mM histidine/HCl (pH 7.0), 5 mM MgSO4, 5 mM NaF, 120 mM KCl, 0.5 mM Ca^2+, 0.037 mg/ml calmodulin with 0.2 mM ATP (39.72 cpm/pmol ^32P-ATP) and 10% crude CaMKII. In the Ca^2+-free experiment, Ca^2+ was replaced by 0.05 mM EGTA. […] Such specificity of a modification site included in a polypeptide comprising a coiled-coil is critical for use of the invention in an intracellular environment.

[2] = tested on: PKA; test: Timecourse of phosphorylation of peptides by PKA (32P-ATP); type: biochemical; conditions: 0.2 mM ATP, pH 7.0
Protocol: Peptides (0.01–1.0 μM) are phosphorylated by purified c-PKA in 50 mM Histidine buffer pH 7.0, 5 mM MgSO4, 1 mM EGTA, 0.1–1.0 μM c-PKA, and 0.2 mM [^32P] γ-ATP (specific activity ˜2Bq/pmol) at 30–37° C. for periods of time ranging from 0 to 60 minutes. Where the chemistry of the peptide is appropriate (i.e. having a basic charge) the phosphopeptide is captured on a cation exchange filter paper (e.g. phosphocellulose P81 paper; Whatman), and reactants are removed by extensive washing in 1% phosphoric acid (see Casnellie, 1991, Methods Enzymol., 200: 115–120). Alternatively, phosphorylation of samples is terminated by the addition of SDS-sample buffer (Laemmli, 1970, Nature, 227: 680–685) and the samples analysed by SDS-PAGE electrophoresis, autoradiography and scintillation counting of gel pieces.
A timecourse of phosphorylation of these peptides by PKA was run in 50 mM histidine/HCl (pH 7.0), 5 mM MgSO4, 5 mM NaF, 0.05 mM EGTA, 120 mM KCl with 0.2 mM ATP (30.9 cpm/pmol ^32P-ATP) and 0.5 μM PKA. […] Zip4T is also phosphorylated, but at a slower rate, with full phosphorylation achieved in 30 minutes in this assay. In this assay, the difference in cpm recovered between the Zip4 peptides and PL919Y was due to the difference in recovery of these peptides on P81 paper; however, a plateau was taken to indicate full phosphorylation.
as §1

[3] = Circular dichroism spectra and thermal denaturation of coiled-coil peptides; type: physicochemical
Protocol: The circular dichroism (measured in units of ellipticity) of proteins at 222 nm provides a measure of the amount of α-helix present in the structure, with a large, negative ellipticity indicting a high level of helicity. The coiled-coil has a distinctive α-helical CD spectrum with minima at 222 nm and 208 nm (O'Shea et al., 1989, Science, 243: 538–542). […] In all experiments described herein, peptide concentration was determined by tyrosine absorbance at 280 nm in 6M GuHCl. […] It is clear that this leucine zipper peptide began to unfold at around 35° C. and was completely unfolded by 70° C.
As in Example 1, circular dichroism was used to assess the coiled-coil structure of the Zip4 polypeptides and the disruption of that structure by phosphorylation. […] This was confirmed by the CD spectra of Zip4S and Zip4SP at 1° C. (FIG. 12).
The coiled-coil motif has a characteristic CD spectrum. As described above, measurement of circular dichroism is useful to distinguish monomeric polypeptides from oligomers and to assess the stability of the structure present, although the technique cannot give information regarding the number of monomers making up the coiled-coil structure. […] Importantly, these peptides shown only have 4.5 leucine zipper heptads, and the incomplete nature of the final heptad is likely to compromise the stability of the coiled-coil structure.

[4] = tested on: PKA; test: FRET report of phosphorylation of labeled peptides by PKA; type: biochemical; conditions: Zip4SF with Zip4SR, ATP present
Protocol: Donor and acceptor fluorophore-labeled polypeptides comprising coiled-coils (molar equivalents of fluorophore-labeled polypeptide or molar excess of acceptor-labeled polypeptide) are first mixed (if the two coiled-coils are present on separate polypeptides). Samples are analyzed in a fluorimeter using excitation wavelengths relevant to the donor fluorescent moiety and emission wavelengths relevant to both the donor and acceptor moieties. […] Typically, measurements are performed at 0–37° C. as a function of time following the addition of the modifying enzyme (and, optionally, a modulator or candidate modulator of function for that enzyme, as described below) to the system in 50 mM histidine pH 7.0, 120 mM KCl, 5 mM MgSO4, 5 mM NaF, 0.05 mM EGTA and 0.2 mM ATP. The assay may be performed at a higher temperature if that temperature is compatible with the enzyme(s) under study.
(§2) Fluorescence was used to report on the phosphorylation status of these peptides (FIG. 13). […] No loss of FRET was observed on addition of PKA in the absence of ATP (data not shown).
Calculation of the ratio of fluorescence output is important, particularly for in vivo applications, thereby avoiding error due to high local concentrations of reporter in the system and enhancing the ability to observe meaningful change.

[5] = tested on: partner peptide; test: FRET between fluorescein- and rhodamine-labeled coiled-coil peptides (association); type: binding; conditions: emission at 516 nm
Protocol: Peptides were then labeled using a method adapted from one known in the art (Hermanson, 1997, Bioconjugate Techniques, Academic Press). 20 mM fluorescein iodoacetamide (FAM) in DMSO and 0.23 mM peptide in 20 mM TES buffer, pH 7.0 were prepared. These were mixed in a molar ratio of 0.9:1 (peptide:label) and incubated at 4° C. in the dark for a minimum of 2 hours. Initially, this method was also applied to labelling with rhodamine maleimide at a ratio of 0.9:2; however, in other experiments, good labelling has been obtained using rhodamine iodoacetamide at a ratio of 0.9:1. Labelling was assessed by reverse phase HPLC (C18 column; solvent A: H2O/0.1% TFA; solvent B: acetonitrile/0.1% TFA) and MALDI-TOF mass spectrometry.
This was accompanied by an increase in fluorescence detected in the rhodamine emission region (not shown).
as §2

[6] = biological target: the molecule itself; test: circular dichroism, self-association
[7] = biological target: T1, Zip4SF (not fully specified; fluorescent donor label (fluorescein, by analogy with Zip3F) on the single Cys); test: FRET, emission spectra
T1 peptide: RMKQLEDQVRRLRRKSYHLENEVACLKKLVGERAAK

Molecule: R MKQLEDQ VRRLRRK SYHLENE VACLKKL VGERAAK (RMKQLEDQVRRLRRKSYHLENEVACLKKLVGERAAK) [Zip4S, 28]
- phosphorylation by CaMKII [1]: unable to phosphorylate
- phosphorylation by PKA (extent) ([2]; 0.25 μM PKA): complete phosphorylation
- phosphorylation by PKA (substrate quality, rate) ([2]; 0.5 μM PKA): good substrate

Molecule: R MKQLEDQ VRRLRRK TYHLENE VACLKKL VGERAAK (RMKQLEDQVRRLRRKTYHLENEVACLKKLVGERAAK) [Zip4T, 29]
- phosphorylation by PKA (substrate quality, rate) ([2]; 0.5 μM PKA): slower rate
- time to full phosphorylation by PKA ([2]; 0.5 μM PKA): 30 min
- relative thermostability (thermal denaturation by CD) ([3]; same conditions as Zip3): more stable than was Zip4S

Molecule: Zip4SF: Zip4S labeled with fluorescein (FRET donor) (RMKQLEDQVRRLRRKSYHLENEVACLKKLVGERAAK; also: labeled with fluorescein (site not given here))
- emission at 516 nm on addition of PKA (loss of FRET) [4]: returned to above the level produced by Zip4SF alone
- FRET upon addition of Zip4SR [5]: loss of emission at 516 nm

Molecule: Zip4SP: enzymatically phosphorylated Zip4S (RMKQLEDQVRRLRRKSYHLENEVACLKKLVGERAAK; also: enzymatically phosphorylated (site not given here))
- folding state in thermal melting/denaturation (ellipticity at 222 nm) ([3]; from starting temperature of 1° C.): unfolded polypeptide in solution

B1: Zip 1 (peptide)
peptide: HMKQLEDKVEELLSKNYCLENEVRRLRRASFSLQ
notes: Initial unsuccessful reporter peptide
- binding result [6]: binds

B2: Zip4SR (peptide)
peptide: RMKQLEDQVRRLRRKSYHLENEVAC(rhodamine)LKKLVGERAAK
modifications: reading uncertain
notes: the labelling of Zip4S itself is not spelled out
- binding result [7]: binds

B3: Zip 2 (peptide)
peptide: RRIRRASIDKVEELKSKNYCLENEVARLKKLVGER
notes: Initial unsuccessful reporter peptide; also called Zip2s
- binding result [6]: binds
